Data as given in publication PMC8547461, “An Intracellular Sensing and Signal Transduction System That Regulates the Metabolism of Polycyclic Aromatic Hydrocarbons in Bacteria” (mSystems, 2021).
pKd: −log10 of the molar value. Where “and” joins values, the source holds several entries; their conditions need not be identical. Equal entries are not always repeated. Where two headings read alike, the source gives them in different places. Each block holds one compound with its values, some of them ahead of it.

Columns and labels:
[1] = test system: DPR-1; assay: Expression of dpr-1 in wild-type P1 (real-time PCR); details: wild-type strain P1 grown on PAH, control sodium acetate
Protocol: Cycloclasticus sp. strain P1 and mutant strain PARP1 were grown in 200 ml of MMC medium containing the appropriate antibiotics, with sodium acetate or PAHs as the carbon source, in 500 ml Erlenmeyer flasks at 28°C on a rotary shaker (200 rpm). Bacterial growth was monitored based on optical density (OD600). Total RNA was extracted using the RNeasy minikit (Qiagen, Valencia, CA, USA) according to the manufacturer’s protocols and subsequently treated with DNase I (Invitrogen, Carlsbad, CA, USA). The RNA yield was estimated using a NanoDrop UV spectrometer (Thermo Scientific, Wilmington, DE, USA). Approximately 4 μg of RNA was reverse transcribed using 20 ng of random primers (Invitrogen, Carlsbad, CA, USA) and PrimeScript reverse transcriptase (TaKaRa, Dalian, China). Control reactions were performed in the absence of reverse transcriptase to verify the absence of genomic DNA. To calculate the number of viable bacteria present, 16S rRNA gene copy numbers were determined using quantitative real-time PCR.
Quantitative real-time PCRs were performed using IQ SYBR green Supermix and the IQ5 multicolor real-time PCR detection system (Bio-Rad, CA, USA). The reactions were performed in 96-well optical plates sealed with optical caps. […] Fluorescence data were acquired at the end of the elongation step. […]
The samples were quantified using a calibration curve that was generated in parallel. A standard quantification curve was generated for each of the tested genes based on a serial dilution of a known amount of target DNA (from 10 to 10^6 copies) utilizing the optimal PCR conditions described above. […] Based on the calibration curve (determined using IQ^5 multicolor real-time PCR detection system software), the initial copy number of each target mRNA was calculated for each sample. The calculated values were normalized to the expression of the 16S rRNA gene to yield the number of copies of each mRNA transcript in 1,000 wild-type Cycloclasticus sp. strain P1 or mutant cells.

[2] = test system: wild-type Cycloclasticus sp. strain P1; assay: Intracellular c-di-GMP quantification (HPLC-MS/MS), wild type; type: cell-based; details: for intracellular concentration of c-di-GMP vs PAH-absent control: wild-type strain P1, after exposure to PAH, 48 h
Protocol: Intracellular c-di-GMP levels were determined using high-performance liquid chromatography tandem mass spectrometry (HPLC-MS/MS), as previously described ([66]), with the following modifications. Strain P1 cells, obtained from OD-adjusted overnight precultures, were inoculated onto various PAH substrates and grown for 48 h in triplicate. Bacterial pellets were resuspended in 0.2% ice-cold formaldehyde at a concentration of 300 mg wet weight/ml, incubated on ice for 10 min, and then centrifuged at 10,000 × g for 15 min. Each pellet was then resuspended in […] of H2O. After extracting nucleotides using ethanol extraction ([67]), samples were dried under a vacuum, reconstituted in […] of H2O via vigorous vortexing and sonication for 5 min, and finally centrifuged for 15 min at 10,000 × g. The supernatants were analyzed at 55°C using an Agilent 1200 HPLC system with a C18 ACE 3 AQ 150- by 2.1-mm column and the corresponding column guard. The mobile phase consisted of 0.1% formic acid run in an H2O-acetonitrile gradient at a flow rate of 300 μl/min, reaching 50% acetonitrile in 15 min. MS analysis was then performed via negative ion electrospray from the Agilent HPLC system into a Bruker HCT Plus ion trap in multiple reaction mode. Using SmartFrag (HyStar software), the trap was set to isolate fragment ions at m/z 688.9 (with a monitored mass range of m/z 450 to 700) from a full scan. Data Analysis v3.3 was used to interrogate the acquisitions, and the extracted ion chromatograms of m/z 538 were produced from the negative-ion MS/MS of m/z 688.9. The retention times and peak spectra were matched to the injected standard (c-di-GMP; Biolog LifeScience Institute, Bremen, Germany) at intervals throughout the run. Peak areas and relative c-di-GMP levels were normalized to the levels obtained with the injected standard. A solution of 1 mg/ml c-di-GMP standard in water was diluted to prepare the spiking solutions with 100 ng/ml, 200 ng/ml, 300 ng/ml, 400 ng/ml, 500 ng/ml, 600 ng/ml, 700 ng/ml, 800 ng/ml, and 900 ng/ml c-di-GMP standard. Extractions and quantifications were all performed in triplicate. The amount of c-di-GMP detected in the blank was subtracted from that detected in the spiked calibrants, and the analysis was calibrated using a linear regression (r^2 = 0.993). To obtain an estimate of c-di-GMP concentration per unit of cellular biomass, the c-di-GMP concentration was divided by the measured OD600 of the original culture.

[3] = biological target: T1, PdgC (Cycloclasticus sp. P1, UniProt K0C005); assay: SPR binding of PAHs to PdgC sensor chip; parameters: species or system Cycloclasticus sp. strain P1; details: wild-type PdgC; for pKd: 20°C, read-out: affinity constant (KD)
Protocol: (§1) The immobilization of the PdgC PAS domain on the sensor surface was carried out as previously described ([68]). Briefly, PdgC was diluted in 10 mM sodium acetate (pH 5.5) and immobilized on a CM5 sensor chip using the amine coupling method by following the manufacturer’s protocol. SPR measurements were performed using a Biacore T200 system (GE Healthcare, Sweden).
PAH compounds were diluted in running buffer (phosphate-buffered saline [PBS] containing 5% DMSO) to a concentration of 50 μM. Running buffer alone (PBS containing 5% DMSO, without PAHs) served as the negative control. All solutions were then injected into the PdgC sensor surface for 120 s at a flow rate of 30 μl/min. Sensograms of these PAHs were recorded and analyzed. […] The association and dissociation times were both 120 s. Affinity fitting (determination of the affinity constant, KD) was performed using Biacore T200 evaluation software with a 1:1 binding mode.

[4] = biological target: PdgC^L68A/V73A/K77G/I115G; assay: SPR binding of PAHs to four-site mutated PdgC sensor chip; parameters: species or system Cycloclasticus sp. strain P1; details: four-site mutation PdgC; for pKd: read-out: affinity constant (KD)
Protocol: as §1
PAH compounds were diluted in running buffer (phosphate-buffered saline [PBS] containing 5% DMSO) to a concentration of 50 μM. Running buffer alone (PBS containing 5% DMSO, without PAHs) served as the negative control. All solutions were then injected into the PdgC sensor surface for 120 s at a flow rate of 30 μl/min. Sensograms of these PAHs were recorded and analyzed. Analytes were injected through the reference and active channels at a flow rate of 30 μl/min. The association and dissociation times were both 120 s. Affinity fitting (determination of the affinity constant, KD) was performed using Biacore T200 evaluation software with a 1:1 binding mode.

[5] = biological target: T1, PdgC; assay: PdgC enzymatic activity assay (Enzchek pyrophosphate assay); details: PAH 2 μM, inorganic pyrophosphate assay
Protocol: Assays were performed using the Enzchek pyrophosphate assay kit (Invitrogen). […] In addition, the pyrophosphatase in the kit was replaced by 0.4 U/ml pyrophosphatase (Sigma). […] The accumulation of phosphate was monitored over time at OD360.

[6] = biological target: T1, PdgC; parameters: method as in PMID 30171002; details: in the presence of PAH; cited from earlier work
[7] = biological target: DPR-1 (Cycloclasticus sp. P1, UniProt K0C5A9); assay: SPR binding of cyclic nucleotides to DPR-1 sensor chip; details: for Ka / Kd: DPR-1
[8] = biological target: DPR-2 (Cycloclasticus sp. P1, UniProt K0C733); assay: SPR binding of cyclic nucleotides to DPR-2 sensor chip; details: for Ka: DPR-2
[9] = test system: DPR-2; assay: Expression of dpr-2 in wild-type P1 (real-time PCR); details: wild-type strain P1 grown on PAH, control sodium acetate
Protocol: Cycloclasticus sp. strain P1 and mutant strain PARP1 were grown in 200 ml of MMC medium containing the appropriate antibiotics, with sodium acetate or PAHs as the carbon source, in 500 ml Erlenmeyer flasks at 28°C on a rotary shaker (200 rpm). Bacterial growth was monitored based on optical density (OD600). Total RNA was extracted using the RNeasy minikit (Qiagen, Valencia, CA, USA) according to the manufacturer’s protocols and subsequently treated with DNase I (Invitrogen, Carlsbad, CA, USA). The RNA yield was estimated using a NanoDrop UV spectrometer (Thermo Scientific, Wilmington, DE, USA). […] To calculate the number of viable bacteria present, 16S rRNA gene copy numbers were determined using quantitative real-time PCR.
Quantitative real-time PCRs were performed using IQ SYBR green Supermix and the IQ5 multicolor real-time PCR detection system (Bio-Rad, CA, USA). […] Fluorescence data were acquired at the end of the elongation step. […]
The samples were quantified using a calibration curve that was generated in parallel. A standard quantification curve was generated for each of the tested genes based on a serial dilution of a known amount of target DNA (from 10 to 10^6 copies) utilizing the optimal PCR conditions described above. […]

[10] = test system: DPR-1 (Cycloclasticus sp. strain P1); assay: SPR; details: biotin-DNA on streptavidin chip, DPR 0-100 nM, with or without 80 nM c-di-GMP, 25 C, 30 ul/min, 150 s association/150 s dissociation, 1:1 fit, buffer …
[11] = biological target: DPR-1; assay: SPR (Biacore T200) with DPR-1, DPR-2 or their quadruple mutants immobilized on CM5 chips and cyclic nucleotides injected in 20 mM MOPS pH 8.0, 300 mM NaCl, 0.005% P20, 0.1 mg/ml BSA at 30 ul/min; 20 °C in results, 25 °C in methods; 1:1 binding fit (legend: steady-state affinity model).; details: read-out: affinity constant (KD); n = 3
Protocol: (§2) The interactions between DPR and secondary message molecules, including c-di-GMP, c-di-AMP, and cyclic AMP (cAMP), were examined using SPR assays.
(§3) SPR data for the binding of c-di-GMP to DPR-1 or DPR-2 (A) and DPR-1^L93A/D94A/T101A/L102A or DPR-2^L91A/D92A/T99A/L100A (B). […] The values of the affinity constant (KD) were calculated by global fitting, using a steady-state affinity model. Data were representatives of three independent experiments.
(§4) The values of the affinity constant (KD) were calculated by global fitting, using a steady-state affinity model. Data were representative of three independent experiments.
(§5) To reconfirm this binding model, site mutations were introduced into DPR-2 (or DPR-1) at L91/A91, D92/A92, T99/A99, and L100/A100, resulting in a quadruple mutated protein, DPR-2^L91A/D92A/T99A/L100A (or DPR-1^L93A/D94A/T101A/L102A). […]
(§6) We covalently immobilized 50 μg/ml DPR-1 and DPR-2 in 10 mM sodium acetate buffer (pH 5.5) onto separate CM5 sensor chips (GE Healthcare), using standard primary amine coupling procedures. […] After double referencing by subtracting the signal of the reference flow cell and the curve of the buffer injection, KD values for c-di-GMP binding to the DPRs immobilized on the sensor chip surface were calculated using reference points at the end of the association phase. Values were calculated with Biacore T200 evaluation software using a 1:1 binding mode.

[12] = biological target: DPR-2; assay: as above; details: read-out: affinity constant (KD); n = 3
Protocol: as §2, §3, §4, §5, §6

[13] = test system: DPR-2 (Cycloclasticus sp. strain P1); assay: SPR; details: biotin-DNA on streptavidin chip, DPR 0-100 nM, with or without 80 nM c-di-GMP, 25 C, 30 ul/min, 150 s association/150 s dissociation, 1:1 fit, buffer …
[14] = no c-di-GMP, value order assumed as in Fig. 7 legend

Chain of DPR-2 (Cycloclasticus sp. P1, UniProt K0C733) (K0C733 1-238): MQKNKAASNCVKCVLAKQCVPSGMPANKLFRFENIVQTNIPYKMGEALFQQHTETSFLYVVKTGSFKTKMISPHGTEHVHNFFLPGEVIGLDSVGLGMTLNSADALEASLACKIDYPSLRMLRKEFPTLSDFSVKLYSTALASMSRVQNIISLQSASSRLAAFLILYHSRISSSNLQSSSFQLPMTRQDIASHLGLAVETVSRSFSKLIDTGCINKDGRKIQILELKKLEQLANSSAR
T1 sequence (K0C005 1-445): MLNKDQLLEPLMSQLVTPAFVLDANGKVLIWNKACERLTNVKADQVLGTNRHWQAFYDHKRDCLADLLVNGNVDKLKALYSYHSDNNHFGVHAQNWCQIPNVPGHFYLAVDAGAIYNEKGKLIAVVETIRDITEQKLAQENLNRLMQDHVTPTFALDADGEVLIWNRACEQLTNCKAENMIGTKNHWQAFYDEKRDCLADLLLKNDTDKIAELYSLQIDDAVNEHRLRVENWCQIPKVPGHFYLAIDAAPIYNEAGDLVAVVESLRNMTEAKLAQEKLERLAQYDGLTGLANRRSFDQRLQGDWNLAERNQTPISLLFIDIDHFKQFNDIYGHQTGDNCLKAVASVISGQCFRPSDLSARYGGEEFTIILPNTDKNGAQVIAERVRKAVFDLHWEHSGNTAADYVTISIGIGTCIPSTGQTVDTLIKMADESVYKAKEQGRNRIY
Chain of DPR-1 (Cycloclasticus sp. P1, UniProt K0C5A9) (K0C5A9 1-242): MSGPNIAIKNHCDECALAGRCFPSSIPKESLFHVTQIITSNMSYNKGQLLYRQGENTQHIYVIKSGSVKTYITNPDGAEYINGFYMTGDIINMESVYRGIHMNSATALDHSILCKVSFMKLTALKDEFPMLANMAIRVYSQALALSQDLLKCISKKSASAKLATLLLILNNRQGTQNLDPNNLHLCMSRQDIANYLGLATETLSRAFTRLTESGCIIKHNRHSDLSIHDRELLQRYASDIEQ

Compound: c1cc2ccc3cccc4ccc(c1)c2c34 [pyrene]
DPR-1 expression [1]: significantly upregulated
c-di-GMP production higher than that caused by naphthalene or phenanthrene ([2]; wild-type strain P1): 30 to 35%
intracellular concentration of c-di-GMP vs PAH-absent control [2]: 8- to 10 fold
Ka [3]: 4.12e5 M^-1S^-1
pKd [3]: 7.34
pKd ([4]; listed as Pyrene): 4.00
pKd [4]: ~4.00
PdgC activity in vitro [5]: active only in the presence of PAHs
pdgC upregulation [6]: 6.5- to 8.0 fold

Compound: Nc1ncnc2c1ncn2[C@@H]1O[C@@H]2COP(=O)(O)O[C@H]2[C@H]1O [cAMP, cyclic AMP]
Ka [7]: 4.15e3 M^-1S^-1
Kd [7]: 1.35e-2 S^-1
pKd ([7]; read-out: affinity constant (KD), DPR-1, 20°C): 5.48
Ka [8]: 5.33e3 M^-1S^-1
pKd ([8]; read-out: affinity constant (KD), DPR-2, 20°C): 5.46

Ka [7]: 6.58e3 M^-1S^-1
Kd [7]: 2.73e-2 S^-1
Ka [8]: 6.16e3 M^-1S^-1
Compound: Nc1ncnc2c1ncn2[C@@H]1O[C@@H]2COP(=O)(O)O[C@H]3[C@@H](O)[C@H](n4cnc5c(N)ncnc54)O[C@@H]3COP(=O)(O)O[C@H]2[C@H]1O [c-di-AMP]

Compound: c1ccc2c(c1)ccc1ccccc12 [phenanthrene]
DPR-1 expression [1]: slightly upregulated
intracellular concentration of c-di-GMP vs PAH-absent control [2]: 8- to 10 fold
pKd [3]: 7.34
pKd ([4]; listed as Phenanthrene): 4.37
pKd [4]: ~4.00
DPR-2 expression [9]: slightly upregulated
PdgC activity in vitro [5]: active only in the presence of PAHs
pdgC upregulation [6]: 6.5- to 8.0 fold

Compound: PQ91_0870-0877
pKd [10]: 9.21
pKd ([10]; no c-di-GMP, text prints 0.73 x 10^6 M, exponent sign evidently lost): 6.14

Ka [7]: 3.94e5 M^-1S^-1
Kd [7]: 1.09e-2 S^-1
Ka [8]: 5.41e5 M^-1S^-1
pKd ([8]; affinity constant (KD), DPR-2, 20°C): 7.40 and ~7.00
Compound: Nc1nc2c(ncn2C2OC3COP(=O)(O)OC4C(COP(=O)(O)OC3C2O)OC(n2cnc3c(=O)[nH]c(N)nc32)C4O)c(=O)[nH]1 (stereo not shown) [c-di-GMP, cyclic dimeric GMP]

pKd [11]: 5.39
pKd [12]: 5.59
Compound: Nc1ncnc2c1ncn2[C@@H]1O[C@@H]2COP(=O)(O)O[C@H]3[C@@H](O)[C@H](n4cnc5c(N)ncnc54)O[C@@H]3COP(=O)(O)O[C@H]2[C@H]1O [c-di-AMP, cyclic dimeric AMP]

Compound: PQ91_2220-2218
pKd [13]: 9.23
pKd [13, 14]: 6.11

Compound: c1ccc2ccccc2c1 [naphthalene]
DPR-1 expression [1]: slightly upregulated
intracellular concentration of c-di-GMP vs PAH-absent control [2]: 8- to 10 fold
Ka [3]: 5.51e5 M^-1S^-1
Ka [4]: 7.6e2 M-1S-1
pKd ([4]; listed as Naphthalene): 4.11
pKd [4]: ~4.00
DPR-2 expression [9]: slightly upregulated
pdgC upregulation [6]: 6.5- to 8.0 fold

Compound: PQ91_2227-2224
pKd [13]: 9.15
pKd [13, 14]: 6.21

Compound: PQ91_2244-2242
pKd [13]: 8.19
pKd [13, 14]: 6.20

Compound: PQ91_0869
pKd [10]: 8.48
pKd ([10]; no c-di-GMP): 6.16
